Results taken from US20150086655A1, “Morinda Citrifolia Juice Formulations Comprising Iridoids” (priority 2013, published 2015).

What was measured:
E. coli PQ37 [1] = assay: Primary DNA damage test (SOS-chromotest); type: cell-based; details: all concentrations tested (7.81-1000 μg mL^−1)
Protocol: The SOS-chromotest in E. coli PQ37 was used to determine the potential for DAA and AA to induce primary DNA damage. This test was carried out according to the previously developed method (Fish et al., 1987). […] E. coli PQ37 was incubated in LB medium in a 96-well plate at 37° C. in the presence of DAA or AA for 2 hours. The DAA and AA concentrations tested were 7.81, 15.6, 31.2, 62.5, 125, 250, 500, and 1000 μg mL^−1. Samples were evaluated in triplicate. […] Induction factors less than two indicate an absence of genotoxic activity.

[2] = Thermal stability of DAA under pasteurization conditions (HPLC); type: physicochemical; details: 90° C. at pH 3.3 for one minute
Protocol: Tahitian noni fruit puree as used in this example is the mashed whole fruit, excluding seeds and pericarp. The fruits were originally collected from the Tahitian Islands. One gram of the puree was diluted with 5 mL of H2O-MeOH (1:1) and mixed thoroughly. The solution was then filtered through a nylon microfilter (0.45-μm pore size); the solution was collected into a 5 mL volumetric flask for HPLC analysis. Four batches of noni puree were analyzed in the experiments. Voucher specimens of the noni fruit puree are deposited in our lab. To test iridoid stability, a DAA solution of 0.5 mg/mL was prepared with MeOH. This solution was heated in a water-bath at 90° C. for 1 min, cooled to room temperature, and analyzed by HPLC.
Noni fruit juice is usually subjected to heat pasteurization during commercial processing. Pasteurization is usually employed in noni industry, i.e., heating up to 87.7° C. for several seconds. In this study, the stability of DAA was conducted. DAA was exposed to 90° C. at pH 3.3 for one minute to determine its thermal stability at acidic conditions.

E. coli PQ37 [3] = type: cell-based; details: 250 ug mL^−1 iridoid plus 1.25 ug mL^−1 4NQO
Protocol: The SOS-chromotest in E. coli PQ37 was used to determine the potential for iridoids in noni fruit from French Polynesia to prevent primary DNA damage. E. coli PQ37 was incubated at 37° C. in the presence of deacetylasperulosidic acid and asperulosidic acid at a concentration of 250 ug mL^−1 in a 96-well plate. Replicate samples were evaluated.

SMILES	induction of SOS repair versus blank (E. coli PQ37 [1])	DAA content before and after heating (thermal stability) [2]	induction factors (mean±standard deviation) (E. coli PQ37 [3])
CC(=O)OCC1=C[C@H](O)[C@@H]2C(C(=O)O)=CO[C@@H](O[C@@H]3O[C@H](CO)[C@@H](O)[C@H](O)[C@H]3O)[C@H]12 [AA, asperulosidic acid]	did not induce any SOS repair		
O=C(O)C1=CO[C@@H](O[C@@H]2O[C@H](CO)[C@@H](O)[C@H](O)[C@H]2O)[C@@H]2C(CO)=C[C@H](O)[C@H]12 [DAA, deacetylasperulosidic acid]	did not induce any SOS repair	no difference in the DAA contents before and after heating	0.98±0.02
